Experimental data published in patent US10405547B2, “Substituted cyclic amides as herbicides” (FMC Corporation, priority 2015, dated 2019).

How the values were obtained:
Type in all cases: in vivo
[1] = system: pigweed (Amaranthus retroflexus); test: Test A preemergence, pigweed; settings: 0 to 100 scale (0 no effect, 100 complete control)
How it was run: (§1)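 Ratings use a 0–100 scale, where 0 means no effect and 100 means complete control, and come from visual comparison with untreated plants roughly 10 days after treatment. Compounds were applied in a surfactant-containing, non-phytotoxic solvent, either to soil after seeding or to foliage of small seedlings.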

[2] = system: barnyardgrass (Echinochloa crus-galli); test: Test A postemergence, barnyardgrass; settings: visual injury, 0 to 100 scale (0 no effect, 100 complete control), approximately 10 days
How it was run: as §1

[3] = system: ragweed (common ragweed, Ambrosia elatior); test: Test A postemergence, ragweed; settings: visual injury, 0 to 100 scale (0 no effect, 100 complete control), approximately 10 days
How it was run: as §1

[4] = system: ryegrass, Italian (Lolium multiflorum); test: Test A postemergence, Italian ryegrass; settings: visual injury, 0 to 100 scale (0 no effect, 100 complete control), approximately 10 days
How it was run: as §1

[5] = system: wheat (Triticum aestivum); test: Test A postemergence, wheat; settings: visual injury, 0 to 100 scale (0 no effect, 100 complete control), approximately 10 days
How it was run: as §1

[6] = system: foxtail, giant (Setaria faberii); test: Test A postemergence, giant foxtail; settings: visual injury, 0 to 100 scale (0 no effect, 100 complete control), approximately 10 days
How it was run: as §1

[7] = system: blackgrass (Alopecurus myosuroides); test: Test A postemergence, blackgrass; settings: visual injury, 0 to 100 scale (0 no effect, 100 complete control), approximately 10 days
How it was run: as §1

corn (Zea mays) = test: Test A postemergence, corn; settings: visual injury, 0 to 100 scale (0 no effect, 100 complete control), approximately 10 days
How it was run: as §1

kochia (Kochia scoparia) [8] = test: Test A postemergence, kochia; settings: visual injury, 0 to 100 scale (0 no effect, 100 complete control), approximately 10 days
How it was run: as §1

[9] = system: ryegrass, Italian (Lolium multiflorum); test: Test A preemergence, Italian ryegrass; settings: 0 to 100 scale (0 no effect, 100 complete control)
How it was run: as §1

[10] = system: galium (catchweed bedstraw, Galium aparine); test: Test A postemergence, galium; settings: visual injury, 0 to 100 scale (0 no effect, 100 complete control), approximately 10 days
How it was run: as §1

[11] = system: foxtail, giant (Setaria faberii); test: Test A preemergence, giant foxtail; settings: 0 to 100 scale (0 no effect, 100 complete control)
How it was run: as §1

kochia (Kochia scoparia) [12] = test: Test A preemergence, kochia; settings: 0 to 100 scale (0 no effect, 100 complete control)
How it was run: as §1

[13] = system: pigweed (Amaranthus retroflexus); test: Test A postemergence, pigweed; settings: visual injury, 0 to 100 scale (0 no effect, 100 complete control), approximately 10 days
How it was run: as §1

[14] = system: ragweed (common ragweed, Ambrosia elatior); test: Test A preemergence, ragweed; settings: 0 to 100 scale (0 no effect, 100 complete control)
How it was run: as §1

[15] = system: barnyardgrass (Echinochloa crus-galli); test: Test A preemergence, barnyardgrass; settings: 0 to 100 scale (0 no effect, 100 complete control)
How it was run: as §1

Compound | Plant response rating, Pigweed ([1]; 125 g ai/ha) | Plant response rating, Pigweed ([1]; 500 g ai/ha) | Plant response rating, Barnyardgrass ([2]; 125 g ai/ha) | Plant response rating, Barnyardgrass ([2]; 500 g ai/ha) | Plant response rating, Ragweed ([3]; 125 g ai/ha) | Plant response rating, Ragweed ([3]; 500 g ai/ha) | Plant response rating, Ryegrass, Italian ([4]; 125 g ai/ha) | Plant response rating, Ryegrass, Italian ([4]; 500 g ai/ha) | Plant response rating, Wheat ([5]; 125 g ai/ha) | Plant response rating, Wheat ([5]; 500 g ai/ha) | Plant response rating, Foxtail, Giant ([6]; 125 g ai/ha) | Plant response rating, Foxtail, Giant ([6]; 500 g ai/ha) | Plant response rating, Blackgrass ([7]; 125 g ai/ha) | Plant response rating, Blackgrass ([7]; 500 g ai/ha) | Plant response rating, Corn (corn (Zea mays); 125 g ai/ha) | Plant response rating, Corn (corn (Zea mays); 500 g ai/ha) | Plant response rating, Kochia (kochia (Kochia scoparia) [8]; 125 g ai/ha) | Plant response rating, Kochia (kochia (Kochia scoparia) [8]; 500 g ai/ha) | Plant response rating, Ryegrass, Italian ([9]; 125 g ai/ha) | Plant response rating, Ryegrass, Italian ([9]; 500 g ai/ha) | other results
O=C1NCC(c2cccc(COc3ccccc3)c2)C1C(=O)Nc1ccc(F)c(F)c1F (centres unmarked) [Compound 17] | 0 | 0 | 30 | 40 | 0 | 0 | 0 | 0 | 0 | 0 | 30 | 40 | 0 | 0 | 0 | 0 | 0 | 0 | 0 | 0 | Plant response rating, Galium ([10]; 125 g ai/ha): 50; Plant response rating, Galium ([10]; 500 g ai/ha): 30; Plant response rating, Foxtail, Giant ([11]; 125 g ai/ha): 50; Plant response rating, Foxtail, Giant ([11]; 500 g ai/ha): 80; Plant response rating, Kochia (kochia (Kochia scoparia) [12]; 125 g ai/ha): 0; Plant response rating, Kochia (kochia (Kochia scoparia) [12]; 500 g ai/ha): 30; Plant response rating, Pigweed ([13]; 125 g ai/ha): 0; Plant response rating, Pigweed ([13]; 500 g ai/ha): 0; Plant response rating, Ragweed ([14]; 125 g ai/ha): 0; Plant response rating, Ragweed ([14]; 500 g ai/ha): 0; Plant response rating, Barnyardgrass ([15]; 125 g ai/ha): 20; Plant response rating, Barnyardgrass ([15]; 500 g ai/ha): 70
O=C1NCC(c2cccc(COc3ccccc3)c2)C1C(=O)Nc1cccc(F)c1F (centres unmarked) [Compound 21] | 0 | 0 | 20 | 20 | 0 | 0 | 0 | 0 | 0 | 0 | 30 | 30 | 0 | 0 | 0 | 0 | 0 | 0 | 0 | 0 | Plant response rating, Galium ([10]; 125 g ai/ha): 0; Plant response rating, Galium ([10]; 500 g ai/ha): 0; Plant response rating, Foxtail, Giant ([11]; 125 g ai/ha): 20; Plant response rating, Foxtail, Giant ([11]; 500 g ai/ha): 60; Plant response rating, Kochia (kochia (Kochia scoparia) [12]; 125 g ai/ha): 0; Plant response rating, Kochia (kochia (Kochia scoparia) [12]; 500 g ai/ha): 20; Plant response rating, Pigweed ([13]; 125 g ai/ha): 0; Plant response rating, Pigweed ([13]; 500 g ai/ha): 0; Plant response rating, Ragweed ([14]; 125 g ai/ha): 0; Plant response rating, Ragweed ([14]; 500 g ai/ha): 0; Plant response rating, Barnyardgrass ([15]; 125 g ai/ha): 0; Plant response rating, Barnyardgrass ([15]; 500 g ai/ha): 40
O=C1NCC(c2cccc(Cn3cccn3)c2)C1C(=O)Nc1ccc(F)c(F)c1F (centres unmarked) [Compound 26] | 0 | 0 | 30 | 70 | 0 | 0 | 0 | 0 | 0 | 0 | 30 | 60 | 0 | 0 | 0 | 0 | 0 | 0 | 0 | 0 | Plant response rating, Galium ([10]; 125 g ai/ha): 0; Plant response rating, Galium ([10]; 500 g ai/ha): 0; Plant response rating, Foxtail, Giant ([11]; 125 g ai/ha): 40; Plant response rating, Foxtail, Giant ([11]; 500 g ai/ha): 90; Plant response rating, Kochia (kochia (Kochia scoparia) [12]; 125 g ai/ha): 0; Plant response rating, Kochia (kochia (Kochia scoparia) [12]; 500 g ai/ha): 0; Plant response rating, Pigweed ([13]; 125 g ai/ha): 0; Plant response rating, Pigweed ([13]; 500 g ai/ha): 0; Plant response rating, Ragweed ([14]; 125 g ai/ha): 0; Plant response rating, Ragweed ([14]; 500 g ai/ha): 0; Plant response rating, Barnyardgrass ([15]; 125 g ai/ha): 40; Plant response rating, Barnyardgrass ([15]; 500 g ai/ha): 90
O=C1NCC(c2cccc(COc3ccccc3)c2)C1C(=O)Nc1ccc(F)cc1F (centres unmarked) [Compound 20] | 0 | 0 | 40 | 70 | 0 | 0 | 0 | 0 | 0 | 0 | 40 | 60 | 0 | 0 | 0 | 0 | 0 | 0 | 0 | 0 | Plant response rating, Galium ([10]; 125 g ai/ha): 0; Plant response rating, Galium ([10]; 500 g ai/ha): 0; Plant response rating, Foxtail, Giant ([11]; 125 g ai/ha): 30; Plant response rating, Foxtail, Giant ([11]; 500 g ai/ha): 80; Plant response rating, Kochia (kochia (Kochia scoparia) [12]; 125 g ai/ha): 0; Plant response rating, Kochia (kochia (Kochia scoparia) [12]; 500 g ai/ha): 30; Plant response rating, Pigweed ([13]; 125 g ai/ha): 0; Plant response rating, Pigweed ([13]; 500 g ai/ha): 0; Plant response rating, Ragweed ([14]; 125 g ai/ha): 0; Plant response rating, Ragweed ([14]; 500 g ai/ha): 0; Plant response rating, Barnyardgrass ([15]; 125 g ai/ha): 20; Plant response rating, Barnyardgrass ([15]; 500 g ai/ha): 70
